Reference: the CheMixHub viscosity set
Where “and” joins values, the source holds several entries; their conditions need not be identical. Identical values can stand only once. ± gives the uncertainty stated by the source.

Tests used:
[1] = xn = mol fraction of the nth substance listed

CC1(C)OC1C#N (stereo not given)
101 kPa
Conditions	viscosity [mPa·s]
293.15 K	1.337 ± 0.035
298.15 K	1.223 ± 0.032
303.15 K	1.1 ± 0.029
313.15 K	0.938 ± 0.025
323.15 K	0.79 ± 0.021

CCCC(C)CO (stereo not given)
Conditions	viscosity
298.15 K, 101.33 kPa	5.304 ± 0.049 mPa·s and 5.304 ± 0.043 mPa·s

CCCCC(CC)COC(C)=O (stereo not given)
101.33 kPa
Conditions	viscosity [mPa·s]
293.15 K	1.471 ± 0.2
303.15 K	1.234 ± 0.18
313.15 K	1.051 ± 0.16
323.15 K	0.906 ± 0.15

CCCCCCCCCCBr
101 kPa
Conditions	viscosity [mPa·s]
297.75 K	2.35 ± 0.051
303.95 K	2.08 ± 0.045
313.55 K	1.75 ± 0.038

CCCCCCCCCCCC(=O)OCC
viscosity
Conditions	293.15 K	303.15 K	308.15 K	313.15 K	323.15 K
100 kPa	3.374 ± 0.074 mPa·s	–	2.43 ± 0.053 mPa·s	2.203 ± 0.048 mPa·s	1.827 ± 0.04 mPa·s
101.33 kPa	3.374 ± 0.14 mPa·s	2.695 ± 0.031 mPa·s	2.43 ± 0.1 mPa·s	2.203 ± 0.09 mPa·s and 2.045 ± 0.024 mPa·s	1.827 ± 0.075 mPa·s

CCCCCCCCCCN
Conditions	viscosity [mPa·s]
303.15 K, 101 kPa	1.766 ± 0.019

CCCCCCCC[P+](CC)(CC)CC.Cc1nc([N+](=O)[O-])c[n-]1
100 kPa
Conditions	viscosity [mPa·s]
293.15 K	920 ± 57
298.15 K	623 ± 33
303.15 K	435 ± 20
308.15 K	313 ± 12
313.15 K	231 ± 8
318.15 K	174 ± 5
323.15 K	135 ± 3

CCCC[NH3+].O=[N+]([O-])[O-]
Conditions	viscosity [mPa·s]
298 K, 101 kPa	108.5 ± 4.4

CCCN(CCC)CCC
101 kPa
Conditions	viscosity [mPa·s]
293.15 K	0.67 ± 0.009
298.15 K	0.523 ± 0.006
303.15 K	0.495 ± 0.005
308.15 K	0.46 ± 0.01
313.15 K	0.45 ± 0.01
318.15 K	0.412 ± 0.004
323.15 K	0.38 ± 0.004

CCN(CC)c1ccccc1
viscosity
Conditions	298 K	298.15 K	303.15 K	308 K	308.15 K	313 K	313.15 K	318.15 K	323.15 K
101 kPa	1.919 ± 0.049 mPa·s	1.93 ± 0.12 mPa·s and 1.77 ± 0.05 mPa·s and 1.93 ± 0.051 mPa·s	1.72 ± 0.04 mPa·s and 1.525 ± 0.04 mPa·s	1.534 ± 0.04 mPa·s	1.55 ± 0.03 mPa·s	–	1.35 ± 0.04 mPa·s	1.274 ± 0.034 mPa·s	1.15 ± 0.08 mPa·s and 1.07 ± 0.03 mPa·s
101.3 kPa	1.933 ± 0.051 mPa·s	–	–	1.547 ± 0.041 mPa·s	–	1.41 ± 0.038 mPa·s	–	–	–

CCOC(=O)CC(=O)OCC
101 kPa
Conditions	viscosity [mPa·s]
303.15 K	1.728 ± 0.037
308.15 K	1.57 ± 0.034
313.15 K	1.456 ± 0.031

ClCCCCl
Conditions	viscosity [mPa·s]
298.15 K, 101 kPa	0.9443 ± 0.008

Clc1ccc(Cl)c(Cl)c1
viscosity [mPa·s]
Conditions	303.15 K	313.15 K	318.15 K
100 kPa	–	1.472 ± 0.012	1.329 ± 0.012
101 kPa	1.785 ± 0.011	1.472 ± 0.031	1.329 ± 0.028

FC(F)(Cl)C(F)(F)Cl
101 kPa
Conditions	viscosity [mPa·s]
293.35 K	0.3524 ± 0.0096
313.05 K	0.2877 ± 0.0078

CCCC[NH3+].O=[N+]([O-])[O-] + O
Conditions	viscosity [mPa·s]
[1], 298.15 K, 101 kPa, x1 = 0.9022	65.05 ± 1.5

Cl.N=C(N)N + O
viscosity [mPa·s], [1], 101.3 kPa
Conditions	x1 = 0.0018	x1 = 0.0045	x1 = 0.0089	x1 = 0.013	x1 = 0.0177
298.15 K	0.896 ± 0.025	0.901 ± 0.025	0.908 ± 0.025	0.915 ± 0.025	0.923 ± 0.025
308.15 K	0.722 ± 0.024	0.727 ± 0.024	0.735 ± 0.024	0.742 ± 0.024	0.748 ± 0.024
318.15 K	0.6 ± 0.024	0.604 ± 0.024	0.613 ± 0.024	0.621 ± 0.024	0.626 ± 0.024

O=S(=O)([O-])[O-].[Mg+2] + O
viscosity [mPa·s], [1]
Conditions	308.15 K	313.15 K	323.15 K
101.3 kPa, x1 = 0.00112	0.74 ± 0.019	0.6745 ± 0.018	0.5642 ± 0.016
101.3 kPa, x1 = 0.002247	0.7982 ± 0.021	0.7215 ± 0.019	0.605 ± 0.017
101.3 kPa, x1 = 0.004484	0.8401 ± 0.022	0.76 ± 0.02	0.6392 ± 0.017
101.3 kPa, x1 = 0.008927	0.942 ± 0.024	0.8575 ± 0.022	0.733 ± 0.019
101.3 kPa, x1 = 0.0177	1.094 ± 0.027	0.955 ± 0.024	0.8368 ± 0.022
101.33 kPa, x1 = 0.000905	0.7405 ± 0.025	0.675 ± 0.023	0.5648 ± 0.02
101.33 kPa, x1 = 0.002718	0.7988 ± 0.027	0.722 ± 0.025	0.6054 ± 0.021
101.33 kPa, x1 = 0.00453	0.8405 ± 0.028	0.7605 ± 0.026	–
101.33 kPa, x1 = 0.006344	0.889 ± 0.03	0.8025 ± 0.027	0.6695 ± 0.023
101.33 kPa, x1 = 0.008159	0.942 ± 0.031	0.858 ± 0.029	0.7335 ± 0.025

CCOC(=O)CC(=O)OCC + O=C1CCCC1
viscosity [mPa·s], [1], 101 kPa
Conditions	x1 = 0.0758	x1 = 0.1566	x1 = 0.2437	x1 = 0.3678	x1 = 0.4601	x1 = 0.5678	x1 = 0.6456	x1 = 0.7598	x1 = 0.8459	x1 = 0.9215
303.15 K	1.061 ± 0.023	1.125 ± 0.024	1.193 ± 0.026	1.288 ± 0.028	1.356 ± 0.029	1.433 ± 0.031	1.487 ± 0.032	1.565 ± 0.034	1.624 ± 0.035	1.675 ± 0.036
308.15 K	0.981 ± 0.021	1.038 ± 0.022	1.098 ± 0.024	1.18 ± 0.025	1.24 ± 0.027	1.307 ± 0.028	1.355 ± 0.029	1.425 ± 0.031	1.477 ± 0.032	1.524 ± 0.033
313.15 K	0.913 ± 0.02	0.964 ± 0.021	1.018 ± 0.022	1.094 ± 0.024	1.15 ± 0.025	1.213 ± 0.026	1.257 ± 0.027	1.321 ± 0.028	1.369 ± 0.03	1.412 ± 0.03

CCOC(=O)CC(=O)OCC + O=C1CCCCC1
viscosity [mPa·s], [1], 101 kPa
Conditions	x1 = 0.0713	x1 = 0.1285	x1 = 0.2155	x1 = 0.3058	x1 = 0.407	x1 = 0.5085	x1 = 0.6055	x1 = 0.7125	x1 = 0.8065	x1 = 0.9118
303.15 K	1.79 ± 0.039	1.76 ± 0.038	1.727 ± 0.037	1.694 ± 0.037	1.665 ± 0.036	1.631 ± 0.035	1.625 ± 0.035	1.635 ± 0.036	1.667 ± 0.036	1.706 ± 0.037
308.15 K	1.623 ± 0.035	1.591 ± 0.034	1.553 ± 0.034	1.515 ± 0.033	1.487 ± 0.032	1.458 ± 0.032	1.454 ± 0.032	1.465 ± 0.032	1.497 ± 0.032	1.533 ± 0.033
313.15 K	1.495 ± 0.032	1.463 ± 0.032	1.423 ± 0.031	1.386 ± 0.03	1.352 ± 0.029	1.333 ± 0.029	1.33 ± 0.029	1.341 ± 0.029	1.371 ± 0.03	1.406 ± 0.03

CCCCCCCCCCCCCC[P+](CCCCCC)(CCCCCC)CCCCCC.c1ccc2[n-]cnc2c1 + O=C=O
Conditions	viscosity [mPa·s]
[1], 298.15 K, 100 kPa, x2 = 0.545	388 ± 15

CCN(CC)c1ccccc1 + O=S1(=O)CCCC1
viscosity [mPa·s], [1], 101 kPa
Conditions	x1 = 0.0999	x1 = 0.2008	x1 = 0.2993	x1 = 0.4001	x1 = 0.5001	x1 = 0.6027	x1 = 0.7023	x1 = 0.7999	x1 = 0.8991
303.15 K	8.19 ± 0.17	6.62 ± 0.14	5.41 ± 0.11	4.44 ± 0.09	3.7 ± 0.08	3.09 ± 0.07	2.63 ± 0.06	2.26 ± 0.05	1.96 ± 0.04
308.15 K	7.26 ± 0.15	5.88 ± 0.12	4.81 ± 0.1	3.96 ± 0.08	3.3 ± 0.07	2.77 ± 0.06	2.36 ± 0.05	2.04 ± 0.04	1.77 ± 0.04
313.15 K	6.45 ± 0.14	5.25 ± 0.11	4.31 ± 0.09	3.54 ± 0.08	2.96 ± 0.06	2.49 ± 0.05	2.13 ± 0.05	1.84 ± 0.04	1.6 ± 0.03

CC[N+](CC)(CC)CC.O=C([O-])CCCC(=O)O + O=S1(=O)CCCC1
[1], 101 kPa, x1 = 0.23
Conditions	viscosity [mPa·s]
303.15 K	150.1
313.15 K	90
323.15 K	58.9

CCN(CC)c1ccccc1 + Oc1ccccc1
viscosity [mPa·s], [1], 101 kPa
Conditions	298.15 K	313.15 K	323.15 K
x1 = 0.0654	8.65 ± 0.23	4.49 ± 0.13	3.1 ± 0.08
x1 = 0.1184	8.76 ± 0.23	4.49 ± 0.13	3.13 ± 0.08
x1 = 0.139	8.47 ± 0.23	4.35 ± 0.12	3 ± 0.08
x1 = 0.1758	8.2 ± 0.22	4.17 ± 0.12	2.87 ± 0.08
x1 = 0.2126	7.75 ± 0.21	3.95 ± 0.11	2.77 ± 0.07
x1 = 0.2997	6.44 ± 0.17	3.49 ± 0.1	2.48 ± 0.07
x1 = 0.3868	5.27 ± 0.14	3 ± 0.08	2.17 ± 0.06
x1 = 0.5	4.11 ± 0.11	2.51 ± 0.07	1.93 ± 0.05
x1 = 0.5955	3.27 ± 0.09	2.13 ± 0.06	1.65 ± 0.04
x1 = 0.6559	2.86 ± 0.08	1.95 ± 0.05	1.52 ± 0.04
x1 = 0.7162	2.63 ± 0.07	1.8 ± 0.05	1.37 ± 0.04
x1 = 0.8502	2.17 ± 0.06	1.48 ± 0.04	1.22 ± 0.03

CCCCCCCCCCN + c1ccccc1
[1], 303.15 K, 101 kPa
Conditions	viscosity [mPa·s]
x2 = 0.2011	1.464 ± 0.016
x2 = 0.3988	1.174 ± 0.013
x2 = 0.4963	1.043 ± 0.011
x2 = 0.5993	0.923 ± 0.01
x2 = 0.7973	0.7207 ± 0.008

CCCN(CCC)CCC + c1ccccc1
viscosity [mPa·s], [1], 101 kPa
Conditions	x1 = 0.01039	x1 = 0.02061	x1 = 0.03067	x1 = 0.04025	x1 = 0.04975	x1 = 0.05958	x1 = 0.06933	x1 = 0.07883	x1 = 0.08893
303.15 K	0.5599 ± 0.0043	0.5574 ± 0.0043	0.5552 ± 0.0043	0.5532 ± 0.0043	0.5515 ± 0.0043	0.5487 ± 0.0043	0.5467 ± 0.0042	0.5453 ± 0.0043	0.5429 ± 0.0042
313.15 K	0.4902 ± 0.0039	0.4877 ± 0.0039	0.4859 ± 0.0039	0.4836 ± 0.0039	0.4818 ± 0.0039	0.4793 ± 0.0039	0.4772 ± 0.0039	0.476 ± 0.0039	0.4738 ± 0.0039
